One experiment has as its target T1, p38alpha (Homo sapiens, UniProt Q16539).
T1 construct: purchased Invitrogen PV3304
In words: P38alpha enzyme inhibition assay (Alphascreen kinase activity assay). The following applies: IC50 classes; 2 hours preincubation at 25° C., 250 μM ATP; read-out: p38α inhibition. The format is biochemical. The essentials: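 p38alpha with 0.3 μg/ml ATF-2 fusion protein in HEPES pH 7.5 buffer (10 mM MgCl2, 2 mM DTT, 1% DMSO); compounds preincubated 2 h at 25° C, then 250 μM ATP added for 1 h at 25° C. Phospho-ATF2 detected by AlphaScreen luminescence with anti-phospho-ATF2 antibody; IC50 from concentration-response curves.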

Experiment [1] concerns Peripheral Blood Mononuclear Cells (PBMCs). In words: LPS-stimulated PBMC TNFα release assay. The following applies: IC50 classes; human PBMC, LPS 10 ng/ml, 18 h; read-out: LPS-stimulated PBMC TNFα release inhibition. In kind it is cell-based. In short, it runs like this: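 Human PBMCs from healthy donors, adhered 3 h in serum-free RPMI, received compound for 1 h in 1% FBS medium before 10 ng/ml LPS for 18 h. Supernatant TNFα was measured by MSD; IC50 from percentage inhibition of control release, at least three separate experiments.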

The next experiment has as its system BEAS-2B cells. Kind of experiment: TNFα-stimulated BEAS-2B IL-8 release assay. In kind it is cell-based. The following applies: Homo sapiens, IC50 classes, TNF-α 10 ng/ml, 18 h, read-out: TNFα-stimulated BEAS-2B IL-8 release inhibition. The essentials: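 BEAS-2B cells at 80-90% confluence were pre-incubated 1 h with p38 inhibitors, then stimulated 18 h at 37 °C with TNF-α (10 ng/ml). Supernatant IL-8 was measured by ELISA. IC50 was taken from sigmoidal variable-slope fits of % inhibition of control release.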

Structures are written as SMILES. Where “and” joins values, the source holds several entries; their conditions need not be identical. Equal entries are not always repeated. Structures can show the parent of a compound that is named as a salt.

T1 sequence (Q16539 whole entry): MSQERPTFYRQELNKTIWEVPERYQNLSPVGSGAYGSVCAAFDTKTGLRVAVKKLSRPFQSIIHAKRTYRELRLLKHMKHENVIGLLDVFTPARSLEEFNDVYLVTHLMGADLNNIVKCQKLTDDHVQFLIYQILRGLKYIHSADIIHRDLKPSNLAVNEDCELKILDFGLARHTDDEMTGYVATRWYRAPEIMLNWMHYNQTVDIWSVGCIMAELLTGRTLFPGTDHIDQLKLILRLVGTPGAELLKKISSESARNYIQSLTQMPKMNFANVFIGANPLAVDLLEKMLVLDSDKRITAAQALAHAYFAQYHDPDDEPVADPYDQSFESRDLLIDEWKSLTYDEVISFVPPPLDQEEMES

As to `CN1CCC[C@@]1(C)c1nnc2ccc(O[C@@H]3CC[C@H](NC(=O)Nc4cc(CO)cc(C(C)(C)C)c4)c4ccccc43)cn12` [Example 49, 1-(3-tert-Butyl-5-hydroxymethyl-phenyl)-3-{(1S,4R)-4-[3-((S)-1,2-dimethyl-pyrrolidin-2-yl)-[1,2,4]triazolo[4,3-a]pyridin-6-yloxy]-1,2,3,4-tetrahydro-naphthalen-1-yl}-urea], the figures for the IC50 (at p38alpha; in experiment [1]; with BEAS-2B cells) were below 1 nM, below 1 nM and below 0.3 nM, respectively.
Regarding `CC(=O)OCc1cc(NC(=O)N[C@H]2CC[C@@H](Oc3ccc4nnc([C@@H]5CCCN5C)n4c3)c3ccccc32)cc(C(C)(C)C)c1` [Example 43, Acetic acid 3-tert-butyl-5-(3-{(1S,4R)-4-[3-((S)-1-methyl-pyrrolidin-2-yl)-[1,2,4]triazolo[4,3-a]pyridin-6-yloxy]-1,2,3,4-tetrahydro-naphthalen-1-yl}-ureido)-benzyl ester], the IC50 is below 1 nM at p38alpha, 1 to 5 nM in experiment [1] and below 0.3 nM in the experiment on BEAS-2B cells.
The like results for `CN1CCC[C@@]1(CO)c1nnc2ccc(O[C@@H]3CC[C@H](NC(=O)Nc4cc(NS(C)(=O)=O)cc(C(C)(C)C)c4)c4ccccc43)cn12` [Example 33] were, in that order, below 1 nM, below 1 nM and 0.3 to 1 nM.
With `COc1c(NC(=O)N[C@H]2CC[C@@H](Oc3ccc4nnc(C(C)(C)N(C)C)n4c3)c3ccccc32)cc(C(C)(C)C)cc1NS(=O)(=O)CC(C)C` [Example 16, 2-Methyl-propane-1-sulfonic acid [5-tert-butyl-3-(3-{(1S,4R)-4-[3-(1-dimethylamino-1-methyl-ethyl)-[1,2,4]triazolo[4,3-a]pyridin-6-yloxy]-1,2,3,4-tetrahydro-naphthalen-1-yl}-ureido)-2-methoxy-phenyl]-amide hydrochloride salt], the IC50 at p38alpha was 1 to 10 nM and < 1 nM; in experiment [1], 1 to 5 nM; in the experiment on BEAS-2B cells it was 0.3 to 1 nM.
Regarding `CN1CCC[C@]1(C)c1nnc2ccc(O[C@@H]3CC[C@H](NC(=O)Nc4cc(NS(C)(=O)=O)cc(C(C)(C)C)c4)c4ccccc43)cn12` [Example 20, N-[3-tert-Butyl-5-(3-{(1S,4R)-4-[3((R)-1,2-dimethyl-pyrrolidin-2-yl)-[1,2,4]triazolo[4,3-a]pyridin-6-yloxy]-1,2,3,4-tetrahydro-naphthalen-1-yl}-ureido)-phenyl]-methanesulfonamide], the IC50 is below 1 nM at p38alpha, below 1 nM in experiment [1] and below 0.3 nM in the experiment with BEAS-2B cells.
